Patent US12686673B2 (Blueprint Medicines Corporation, priority 2020, dated 2026)
pIC50: −log10 of the molar value. Structures can show the parent of a compound that is named as a salt. Where two headings read alike, the source gives them in different places.

How the values were obtained:
Assay type in all cases: cell-based
A431 cells = test: Cellular proliferation (Alamar Blue) assay, A431
[1] = biological target: HER2 (A775_G776insYVMA) expressing Ba/F3 stable cell line (Homo sapiens, UniProt P04626, DUP772-775, cells depend on it); test: Cellular proliferation (Alamar Blue) assay, HER2 A775_G776insYVMA Ba/F3; conditions: 72 hr, read-out: YVMA IC50
Method: • 1. EGFR(D770_N771insSVD) expressing Ba/F3 stable cell line • 2. EGFR (A767_dupASV) expressing Ba/F3 stable cell line • 3. A431 cells • 4. EGFR (H773insNPH) expressing Ba/F3 stable cell line • 5. HER2 (A775_G776insYVMA) expressing Ba/F3 stable cell line Assay Procedure: • 1. Seed cells at 5000 for A431 and 15,000 cells for Ba/F3 in 100 μL/well in complete media (for A431: DMEM with […] and for Ba/F3 cells: RPMI with 10% FBS) in 96-well tissue culture plate. Leave outer wells without cells for background measurements. Incubate at 37 degree Celsius in […] humidified incubator for 16-18 hours. • 2. Add 0.025 ml of 5× concentration compound dilution or DMSO control. Final compound concentration range is 10-0.0005 μM prepared in 3-fold serial dilutions. Incubate for 72 hr at 37 degree Celsius in […] humidified incubator. • 3. Add 0.0125 ml Alamar Blue™ reagent to each well with multi-channel pipette and tap gently on each side of the plate to mix. Incubate for 3 hours at 37 degree Celsius in 5% CO2 humidified incubator. • 4. […] Data analysis was performed using XLfit 5.5.0.5.

[2] = biological target: EGFR(D770_N771insSVD) expressing Ba/F3 stable cell line (Homo sapiens, UniProt P00533, DUP768-770, cells depend on it); test: Cellular proliferation (Alamar Blue) assay, EGFR D770_N771insSVD Ba/F3; conditions: 72 hr, read-out: D770 IC50
In short: (§1)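 Each stable Ba/F3 line, cultured in RPMI with 10% FBS at 15,000 cells per well, received a threefold compound series (final top 10 μM, bottom 0.0005 μM) for 72 hr at 37 degree Celsius, then Alamar Blue for 3 h.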

[3] = biological target: EGFR (A767_dupASV) expressing Ba/F3 stable cell line (Homo sapiens, UniProt P00533, DUP767-769, cells depend on it); test: Cellular proliferation (Alamar Blue) assay, EGFR A767_dupASV Ba/F3; conditions: 72 hr, read-out: A767 IC50
In short: as §1

[4] = Homo sapiens, A-431; A431 cells, 72 hr, Alamar Blue; read-out: A431 IC50
[5] = Homo sapiens, A-431; A431 cells, Alamar Blue, 72 hr; read-out: A431 IC50

Chain of EGFR (A767_dupASV) expressing Ba/F3 stable cell line (P00533 with tags, fused parts or gaps DUP767-769): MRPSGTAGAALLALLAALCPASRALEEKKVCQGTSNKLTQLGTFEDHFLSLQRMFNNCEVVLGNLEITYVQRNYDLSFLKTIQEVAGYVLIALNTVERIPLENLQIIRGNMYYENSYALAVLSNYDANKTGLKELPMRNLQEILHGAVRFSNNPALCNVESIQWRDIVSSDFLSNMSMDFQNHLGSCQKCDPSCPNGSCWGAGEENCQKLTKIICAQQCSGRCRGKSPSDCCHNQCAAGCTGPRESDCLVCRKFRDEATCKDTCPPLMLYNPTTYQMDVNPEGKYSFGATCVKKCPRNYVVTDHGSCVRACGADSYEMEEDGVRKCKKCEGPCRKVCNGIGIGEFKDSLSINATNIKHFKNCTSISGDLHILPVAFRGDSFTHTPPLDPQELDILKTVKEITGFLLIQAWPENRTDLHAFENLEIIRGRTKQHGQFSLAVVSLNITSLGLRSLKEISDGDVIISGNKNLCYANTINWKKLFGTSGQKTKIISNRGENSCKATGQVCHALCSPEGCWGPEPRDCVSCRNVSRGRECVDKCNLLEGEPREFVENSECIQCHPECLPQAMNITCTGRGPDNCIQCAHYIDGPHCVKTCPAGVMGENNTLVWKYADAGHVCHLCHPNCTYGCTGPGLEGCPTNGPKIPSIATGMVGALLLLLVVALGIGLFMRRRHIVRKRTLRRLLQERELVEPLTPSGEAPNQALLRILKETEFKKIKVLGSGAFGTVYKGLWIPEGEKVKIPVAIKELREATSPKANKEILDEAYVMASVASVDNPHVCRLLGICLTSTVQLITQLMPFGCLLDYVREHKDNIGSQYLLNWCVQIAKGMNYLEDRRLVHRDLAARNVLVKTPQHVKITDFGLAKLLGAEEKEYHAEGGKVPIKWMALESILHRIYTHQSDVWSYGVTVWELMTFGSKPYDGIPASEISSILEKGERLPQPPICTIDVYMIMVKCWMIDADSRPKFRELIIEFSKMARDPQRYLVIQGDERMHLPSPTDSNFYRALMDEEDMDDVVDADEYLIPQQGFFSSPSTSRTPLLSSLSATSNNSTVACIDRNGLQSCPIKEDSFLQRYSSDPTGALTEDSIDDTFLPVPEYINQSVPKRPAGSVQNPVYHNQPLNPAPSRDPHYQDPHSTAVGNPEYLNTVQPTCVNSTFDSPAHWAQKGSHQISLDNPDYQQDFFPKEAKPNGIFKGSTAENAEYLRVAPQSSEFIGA
Chain of EGFR(D770_N771insSVD) expressing Ba/F3 stable cell line (P00533 with tags, fused parts or gaps DUP768-770): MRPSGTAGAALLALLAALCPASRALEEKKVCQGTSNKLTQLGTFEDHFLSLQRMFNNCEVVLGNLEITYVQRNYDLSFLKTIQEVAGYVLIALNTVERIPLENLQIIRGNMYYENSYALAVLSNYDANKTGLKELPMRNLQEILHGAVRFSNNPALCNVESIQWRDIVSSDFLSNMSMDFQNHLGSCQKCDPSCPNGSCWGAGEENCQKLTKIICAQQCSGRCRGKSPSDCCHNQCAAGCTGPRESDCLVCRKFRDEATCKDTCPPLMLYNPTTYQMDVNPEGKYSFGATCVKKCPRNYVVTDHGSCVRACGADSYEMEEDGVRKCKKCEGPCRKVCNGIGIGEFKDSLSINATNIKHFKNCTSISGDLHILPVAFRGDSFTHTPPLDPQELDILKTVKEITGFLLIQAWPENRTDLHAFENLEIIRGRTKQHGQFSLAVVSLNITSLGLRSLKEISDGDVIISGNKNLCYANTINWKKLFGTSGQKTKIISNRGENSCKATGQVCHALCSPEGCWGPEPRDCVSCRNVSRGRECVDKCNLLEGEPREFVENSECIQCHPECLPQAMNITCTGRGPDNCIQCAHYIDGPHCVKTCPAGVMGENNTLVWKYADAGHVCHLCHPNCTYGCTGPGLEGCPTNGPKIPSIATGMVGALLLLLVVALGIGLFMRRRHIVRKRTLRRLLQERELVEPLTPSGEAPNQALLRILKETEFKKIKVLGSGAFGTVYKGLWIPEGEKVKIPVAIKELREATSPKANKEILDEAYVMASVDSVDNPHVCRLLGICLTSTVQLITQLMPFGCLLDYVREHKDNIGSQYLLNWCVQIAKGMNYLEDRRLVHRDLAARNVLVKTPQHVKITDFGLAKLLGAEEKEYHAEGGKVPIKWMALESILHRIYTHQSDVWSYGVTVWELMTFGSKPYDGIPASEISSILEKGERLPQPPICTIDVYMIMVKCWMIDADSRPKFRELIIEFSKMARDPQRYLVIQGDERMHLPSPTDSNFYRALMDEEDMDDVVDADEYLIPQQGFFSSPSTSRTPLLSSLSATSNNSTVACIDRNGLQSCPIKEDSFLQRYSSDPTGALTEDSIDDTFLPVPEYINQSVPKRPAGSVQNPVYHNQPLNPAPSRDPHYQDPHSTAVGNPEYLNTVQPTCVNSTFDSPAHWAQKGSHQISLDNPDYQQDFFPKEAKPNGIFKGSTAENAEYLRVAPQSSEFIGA
Chain of HER2 (A775_G776insYVMA) expressing Ba/F3 stable cell line (P04626 with tags, fused parts or gaps DUP772-775): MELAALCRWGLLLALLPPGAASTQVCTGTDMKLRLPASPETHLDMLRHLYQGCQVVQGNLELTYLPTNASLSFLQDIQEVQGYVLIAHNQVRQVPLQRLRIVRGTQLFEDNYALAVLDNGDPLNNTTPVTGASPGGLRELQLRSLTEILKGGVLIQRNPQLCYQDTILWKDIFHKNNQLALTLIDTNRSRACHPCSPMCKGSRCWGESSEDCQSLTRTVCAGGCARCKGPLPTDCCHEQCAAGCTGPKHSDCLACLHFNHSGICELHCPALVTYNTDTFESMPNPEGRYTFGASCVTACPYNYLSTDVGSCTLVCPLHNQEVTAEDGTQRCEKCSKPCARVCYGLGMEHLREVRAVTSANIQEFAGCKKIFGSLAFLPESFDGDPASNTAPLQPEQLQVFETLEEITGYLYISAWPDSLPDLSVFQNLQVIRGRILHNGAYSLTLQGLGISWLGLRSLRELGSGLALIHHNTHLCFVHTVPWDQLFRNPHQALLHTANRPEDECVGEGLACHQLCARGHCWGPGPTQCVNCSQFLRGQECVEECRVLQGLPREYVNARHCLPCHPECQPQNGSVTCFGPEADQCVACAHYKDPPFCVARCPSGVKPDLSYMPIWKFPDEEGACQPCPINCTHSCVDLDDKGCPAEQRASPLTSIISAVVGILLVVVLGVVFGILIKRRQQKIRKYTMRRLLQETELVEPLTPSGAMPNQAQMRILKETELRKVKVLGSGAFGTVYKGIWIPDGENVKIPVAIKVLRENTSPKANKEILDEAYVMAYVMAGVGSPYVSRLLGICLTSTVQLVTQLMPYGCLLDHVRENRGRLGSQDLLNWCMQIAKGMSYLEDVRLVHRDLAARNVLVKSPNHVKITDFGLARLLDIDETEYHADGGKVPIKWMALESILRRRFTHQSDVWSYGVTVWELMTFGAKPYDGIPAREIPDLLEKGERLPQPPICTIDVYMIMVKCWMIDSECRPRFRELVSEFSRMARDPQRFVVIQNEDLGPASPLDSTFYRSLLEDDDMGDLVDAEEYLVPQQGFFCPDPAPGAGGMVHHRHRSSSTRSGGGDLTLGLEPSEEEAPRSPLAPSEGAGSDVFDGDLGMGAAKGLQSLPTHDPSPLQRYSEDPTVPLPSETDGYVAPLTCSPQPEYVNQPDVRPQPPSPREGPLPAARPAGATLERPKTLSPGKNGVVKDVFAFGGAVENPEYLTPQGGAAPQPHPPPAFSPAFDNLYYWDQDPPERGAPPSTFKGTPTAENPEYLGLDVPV

Row | SMILES | pIC50 (A431 cells; [4]) | GI50 [1] [µM] | GI50 [2] [µM] | GI50 [3] [µM] | pIC50 (A431 cells; [5])
1 | C=CC(=O)Nc1ccc(F)c(Nc2nc(Nc3cnn(CC(C)(C)O)c3)ncc2Br)c1 [Compound 273, N-(3-((5-bromo-2-((1-(2-hydroxy-2-methylpropyl)-1H-pyrazol-4-yl)amino)pyrimidin-4-yl)amino)-4-fluorophenyl)acrylamide] | 5.41 | 2.63 | – | – | –
2 | C=CC(=O)Nc1ccc(F)c(Nc2nc(Nc3cnn(C)c3)ncc2-c2cccc3ncccc23)c1 [Compound 262, N-(4-fluoro-3-((2-((1-methyl-1H-pyrazol-4-yl)amino)-5-(quinolin-5-yl)pyrimidin-4-yl)amino)phenyl)acrylamide] | – | 4.43 | – | – | –
3 | C=CC(=O)Nc1ccc(F)c(Nc2nc(Nc3cnn(C)c3)ncc2C2=CCOC2)c1 [Compound 261, N-(3-{[5-(2,5-dihydrofuran-3-yl)-2-[(1-methyl-1H-pyrazol-4-yl)amino]pyrimidin-4-yl]amino}-4-fluorophenyl) prop-2-enamide] | 6.71 | 0.222 | – | – | –
4 | C=CC(=O)Nc1ccc(F)c(Nc2nc(Nc3cn(C)nc3Cl)ncc2-c2ccccc2F)c1 [Compound 264, N-(3-((2-((3-chloro-1-methyl-1H-pyrazol-4-yl)amino)-5-(2-fluorophenyl)pyrimidin-4-yl)amino)-4-fluorophenyl)acrylamide] | 6.84 | 0.465 | – | – | –
5 | C=CC(=O)Nc1cccc(Nc2ncc(Cl)c(Nc3cnn(C)c3)n2)c1 [Compound 275, N-(3-((5-chloro-4-((1-methyl-1H-pyrazol-4-yl)amino)pyrimidin-2-yl)amino)phenyl)acrylamide] | 5.84 | 3.05 | – | – | –
6 | C=CC(=O)Nc1ccc(F)c(Nc2nc(Nc3cnn(C)c3)ncc2-c2ccc(OCc3cccc(F)c3)cc2)c1 [Compound 276, N-(4-fluoro-3-((5-(4-((3-fluorobenzyl)oxy)phenyl)-2-((1-methyl-1H-pyrazol-4-yl)amino)pyrimidin-4-yl)amino)phenyl)acrylamide] | 6.56 | 0.861 | – | – | –
7 | C=CC(=O)Nc1ccc(F)c(Nc2nc(Nc3cnn(C(C)(C)C#N)c3)ncc2Br)c1 [Compound 271, N-(3-((5-bromo-2-((1-(2-cyanopropan-2-yl)-1H-pyrazol-4-yl)amino)pyrimidin-4-yl)amino)-4-fluorophenyl)acrylamide] | 5.53 | 2.16 | – | – | –
8 | C=CC(=O)Nc1ccc(F)c(Nc2nc(Nc3cnn(C)c3)ncc2C2CCOC2)c1 (centres unmarked) [Compound 266, N-{4-fluoro-3-([2-[(1-methyl-1H-pyrazol-4-yl)amino]-5-(oxolan-3-yl)pyrimidin-4-yl}amino)phenyl] prop-2-enamide] | 6.11 | 1.38 | – | – | –
9 | C=CC(=O)Nc1ccc(F)c(Nc2nc(Nc3cnn(C)c3)ncc2N2CCCCC2)c1 [Compound 269, N-(4-fluoro-3-((2-((1-methyl-1H-pyrazol-4-yl)amino)-5-(piperidin-1-yl)pyrimidin-4-yl)amino)phenyl)acrylamide] | 5.25 | > 10 | – | – | –
10 | C=CC(=O)Nc1ccc(F)c(Nc2nc(Nc3cnn(C)c3)ncc2C2CCOCC2)c1 [Compound 255, N-(4-fluoro-3-((2-((1-methyl-1H-pyrazol-4-yl)amino)-5-(tetrahydro-2H-pyran-4-yl)pyrimidin-4-yl)amino)phenyl)acrylamide] | – | > 10 | – | – | –
11 | C=CC(=O)Nc1ccc(F)c(Nc2nc(Nc3cnn(C)c3)ncc2-c2ccccc2Cl)c1 [Compound 150, N-(3-((5-(2-chlorophenyl)-2-((1-methyl-1H-pyrazol-4-yl)amino)pyrimidin-4-yl)amino)-4-fluorophenyl)acrylamide 2,2,2-trifluoroacetate] | – | 1.81 | – | – | –
12 | Cn1cc(Nc2ncc(-c3ccc(C(F)(F)F)cc3)c(Nc3cc(N)ccc3F)n2)cn1 [Compound 257, N^4-(5-amino-2-fluorophenyl)-N^2-(1-methyl-1H-pyrazol-4-yl)-5-(4-(trifluoromethyl)phenyl)pyrimidine-2,4-diamine] | < 5.00 | – | > 10 | > 10 | –
13 | C=CC(=O)Nc1ccc(F)c(Nc2nc(Nc3cnn(C)c3)ncc2C2CC2)c1 [Compound 120, N-(3-((5-cyclopropyl-2-((1-methyl-1H-pyrazol-4-yl)amino)pyrimidin-4-yl)amino)-4-fluorophenyl)acrylamide trifluoroacetate] | – | – | 0.967 | 0.875 | 5.42
14 | C=CC(=O)Nc1ccc(F)c(Nc2nc(Nc3ccsc3)ncc2-c2ccc(C(F)(F)F)cc2)c1 [Compound 46, N-(4-fluoro-3-((2-(thiophen-3-ylamino)-5-(4-(trifluoromethyl)phenyl)pyrimidin-4-yl)amino)phenyl)acrylamide trifluoroacetate] | – | – | 0.973 | 2.74 | 6.28
15 | C=CC(=O)Nc1ccc(F)c(Nc2nc(Nc3ccn(C)n3)ncc2-c2ccc(C(F)(F)F)cc2)c1 [Compound 113, N-(4-fluoro-3-((2-((1-methyl-1H-pyrazol-3-yl)amino)-5-(4-(trifluoromethyl)phenyl)pyrimidin-4-yl)amino)phenyl)acrylamide trifluoroacetate] | – | – | 0.317 | 0.263 | 6.70
16 | C=CC(=O)Nc1ccc(C(=O)Nc2ccccc2)c(Nc2nc(Nc3cnn(C)c3)ncc2Cl)c1 [Compound 163, 2-({5-chloro-2-[(1-methyl-1H-pyrazol-4-yl)amino]pyrimidin-4-yl}amino)-N-phenyl-4-(prop-2-enamido) benzamide] | – | – | > 10 | 9.44 | 5.08
17 | C=CC(=O)Nc1ccc(C#Cc2ccccc2)c(Nc2nc(Nc3cnn(C)c3)ncc2Cl)c1 [Compound 178, N-[3-({5-chloro-2-[(1-methyl-1H-pyrazol-4-yl)amino]pyrimidin-4-yl}amino)-4-(2-phenylethynyl)phenyl] prop-2-enamide] | – | – | > 10 | > 10 | 5.00

Continued, values first:

Row | pIC50 (A431 cells; [4]) | GI50 [1] [µM] | GI50 [2] [µM] | GI50 [3] [µM] | pIC50 (A431 cells; [5]) | SMILES
18 | 6.27 | 0.874 | – | – | – | C=CC(=O)Nc1ccc(F)c(Nc2nc(Nc3cnn(CCN(C)C)c3)ncc2Cl)c1 [Compound 284, N-(3-((5-chloro-2-((1-(2-(dimethylamino)ethyl)-1H-pyrazol-4-yl)amino)pyrimidin-4-yl)amino)-4-fluorophenyl)acrylamide]
19 | < 5.00 | 1.84 | – | – | – | C=CC(=O)Nc1cc(Nc2nc(Nc3cnn(C)c3)ncc2Cl)cc(C(F)(F)F)c1 [Compound 291, N-(3-((5-chloro-2-((1-methyl-1H-pyrazol-4-yl)amino)pyrimidin-4-yl)amino)-5-(trifluoromethyl)phenyl)acrylamide]
20 | 6.28 | 5.16 | – | – | – | C=CC(=O)Nc1cccc(Nc2nc(Nc3cnn(C)c3)ncc2F)c1 [Compound 280, N-[3-({5-fluoro-2-[(1-methyl-1H-pyrazol-4-yl)amino]pyrimidin-4-yl}amino)phenyl]prop-2-enamide]
21 | 7.14 | 0.444 | – | – | – | C=CC(=O)Nc1ccc(F)c(Nc2nc(Nc3cnn(C)c3)ncc2-c2ccn3ncnc3c2)c1 [Compound 278, N-(3-((5-([1,2,4]triazolo[1,5-a]pyridin-7-yl)-2-((1-methyl-1H-pyrazol-4-yl)amino)pyrimidin-4-yl)amino)-4-fluorophenyl)acrylamide]
22 | 6.21 | 1.48 | – | – | – | C=CC(=O)Nc1cc(Br)cc(Nc2nc(Nc3cnn(C)c3)ncc2Cl)c1 [Compound 283, N-[3-bromo-5-({5-chloro-2-[(1-methyl-1H-pyrazol-4-yl)amino]pyrimidin-4-yl}amino)phenyl]prop-2-enamide]
23 | 5.99 | 8.83 | – | – | – | C=CC(=O)Nc1ccc(Cl)c(Nc2nc(Nc3cnn(C)c3)ncc2-c2ccc(Br)cc2)c1 [Compound 292, N-(3-((5-(4-bromophenyl)-2-((1-methyl-1H-pyrazol-4-yl)amino)pyrimidin-4-yl)amino)-4-chlorophenyl)acrylamide]
24 | 5.31 | 3.04 | – | – | – | C=CC(=O)Nc1ccc(F)c(Nc2nc(Nc3ccc(N(C)CCN(C)C)cc3)ncc2Cl)c1 [Compound 288, N-(3-((5-chloro-2-((4-((2-(dimethylamino)ethyl)(methyl)amino)phenyl)amino)pyrimidin-4-yl)amino)-4-fluorophenyl)acrylamide]
25 | 6.53 | 0.645 | – | – | – | C=CC(=O)Nc1ccc(F)c(Nc2nc(Nc3cnn(C)c3)ncc2-c2ccc3[nH]ncc3c2)c1 [Compound 277, N-(3-((5-(1H-indazol-5-yl)-2-((1-methyl-1H-pyrazol-4-yl)amino)pyrimidin-4-yl)amino)-4-fluorophenyl)acrylamide]
